This is an account of results in patent publication US12576060B2, “Water soluble 3-O-acetyl-11-keto-β-boswellic acid and metal ion compositions, process for their preparation and uses thereof” (LAILA NUTRA PRIVATE LIMITED, priority 2020, dated 2026).

“And” between values parts separate entries of the source, which are not always exact repeats. Equal values may be shown once.

Data set [1] in a line: Solubility in water of potassium or sodium salts of AKBA. It is filed as physicochemical. Conditions: volume of water needed to completely dissolve 1.0 g; room temperature (RT). On the procedure:
(§1) These potassium or sodium salts of AKBA were evaluated for their solubility in water and determined their pH.

The nature of another data set: pH of 1% solution. It is filed as physicochemical. On the procedure:
as §1

Data set [2] has as its system Leukotriene B4 (LTB4) production. In words: Assay for Leukotriene B4 (LTB4) inhibition in A23187-induced polymorphonuclear leukocytes (PMNs). Conditions: human PMNs, 10 μM A23187 induction. It is filed as cell-based. The method, then:
Human blood was collected from healthy volunteers from a peripheral vein in the presence of 2 mM EDTA. Plasma was separated by centrifugation at 1000 rpm for 10 minutes, and the residual cell pellet was resuspended in RPMI medium supplemented with 10% FBS and 2 mM EDTA. Thirty milliliters of blood cell suspension was carefully overlayed onto 15 mL of Ficoll/Lymphoprep in a 50 mL falcon tube in the dark, and the tube was centrifuged at 350×g for 30 minutes without using the brake. After removing the peripheral blood mononuclear cells (PBMC) and Ficoll/Lymphoprep, the settled red blood cell (RBC) layer containing granulocytes was treated with ACK lysis buffer (Gibco Cat #A10492-01) to lyse the RBC. After centrifugation at 1200 rpm for 10 minutes, the resulting cell pellet of polymorphonuclear leukocytes (PMNs) was resuspended in RPMI containing 1% newborn calf serum (NBCS). These cells were seeded in a 96-well plate at a density of 50,000 cells/well and treated with different concentrations of the test samples. Cells with 0.2% DMSO served as vehicle control. The plate was incubated in a CO2 incubator at 37° C. for 2 hrs. Finally, the cells treated with test samples were induced with 10 μM A23187 for 10 minutes at 37° C. in a CO2 incubator. The cells treated with only A23187 served as induction control. The plate was centrifuged at 1200 rpm for 5 minutes, and 120 μL cell-free supernatants were collected. Quantitation of LTB4 was performed using an ELISA kit (R&D Systems, Cat #SKGE006B) following the manufacturer's instructions. Absorbance was measured at 450 nm with a correction wavelength of 570 nm in a plate reader (Spectramax2e, Molecular Devices, USA). The reduction of LTB4 production was calculated using the following formula. % reduction of LTB4=[(Normalized Conc. of LTB4 in Induction)−(Normalized Conc. of LTB4 in Test sample)]/(Normalized Conc. of LTB4 in Induction)×100 The results are presented in tables: 3-5.

The test system of data set [3] is Prostaglandin E2 (PGE2) production. Briefly: Assay for Prostaglandin E2 (PGE2) inhibition in LPS-induced peripheral blood mononuclear cells (PBMC). It is filed as cell-based. As to conditions: LPS 10 ng/mL induction; for % Inhibition of PGE2: human PBMC. The method, then: Human blood was collected from healthy volunteers from a peripheral vein with a syringe containing EDTA at a final concentration of 2 mM. Plasma was separated by centrifugation at 1000 rpm for 10 minutes, and the residual blood was diluted with RPMI medium supplemented with 10% FBS and 2 mM EDTA in a ratio of 1:3. Thirty milliliters of blood was carefully layered onto the 15 mL of Ficoll/Lymphoprep in a 50 mL falcon tube, and tubes were centrifuged at 350×g for 30 minutes at an acceleration of 9 without using the brake. Buffy coat (interface between medium and Ficoll) containing peripheral blood mononuclear cells (PBMC) was collected carefully in 25 mL of cold 1× phosphate-buffered saline (PBS) and centrifuged at 1200 rpm for 10 minutes. Residual RBCs found in PBMCs pellet were removed by treating with ACK lysis buffer (Gibco Cat #A10492-01) and washed with fresh 1×PBS. PBMC were seeded in a 96-well plate with a density of 0.1×10^6 cells/well and treated with different concentrations of test samples. Cells with 0.2% DMSO served as vehicle control. The plate was incubated in a CO2 incubator at 37° C. for 2 hrs. Finally, cells were induced with LPS (10 ng/mL final concentration) for 4 hours except for vehicle control by keeping the plate at 37° C. in a CO2 incubator. The plate was centrifuged at 1200 rpm for 5 minutes, and 120 μL cell-free supernatants were collected. Quantitation of PGE2 was performed using an ELISA kit (Cayman Chemicals Cat #514010) according to the manufacturer's instructions. Absorbance was measured at 412 nm in a kinetic mode for 30 minutes in a microplate reader (Spectramax2e, Molecular Devices, USA). Percent Inhibition of PGE2 was calculated using the following formula. % Inhibition of PGE2=(Normalized conc. of PGE2 in Induction)−(Normalized conc. of PGE2 in Test sample)/×100 • (Normalized conc. of PGE2 in Induction)
The normalized PGE2 concentration in the LPS induced or the treated wells were obtained from deducting the […].

In the next data set the test system is C-reactive protein (CRP). In words: Reduction of C-Reactive Protein (CRP) in muscle, exercise-induced DOMS model of rats. It counts as in vivo, Sprague Dawley rats. Conditions: 25 mg/kg for seven days; for Mean CRP conc.: EDL muscle tissue lysate; for % reduction of CRP from normal control: EDL muscle. The method, then:
On day 1 of the study, male Sprague Dawley rats (8-12 weeks) were randomized into seven groups, each group contained seven animals. Basal readings (Paw Withdrawal Threshold) of mechanical hyperalgesia (Electronic von Frey) were obtained. Animals were dosed with either 25 mg/kg of the test items or vehicle (0.5% CMC-Na) for seven days. On day 5, Delayed Onset of Muscle Soreness (DOMS) was induced by introducing the animals to downhill treadmill running task (rate, 15 m/min; time, 5 min; incline, −20° followed by a 1-min rest, repeated 18 times) for 90 min or till exhaustion. Paw Withdrawal Threshold (PWT) was measured at 1 h, 4 h, 24 h (day 6) and 48 h (day 7) post to eccentric exercise and the exploratory behavior measurements were taken at 1 h and 4 h post to DOMS induction. Terminal necropsy was performed after euthanizing the animals under CO2 asphyxiation.
Small pieces of the extensor digitorum longus (EDL) muscles were macerated in liquid nitrogen (LN2) and homogenized in a tissue lysis buffer [50 mM Tris-HCl (pH 7.4), 150 mM NaCl, 5 mM EDTA, 0.5% sodium dodecyl sulfate (SDS), 1% deoxycholate, 0.1% Triton X-100, 1% Nonidet P-40 (NP-40), 0.05% mercaptoethanol, 10 mg/ml PMSF, 0.5 mg/ml leupeptin, 0.2 mg/ml aprotinin, and 1 mM Na3VO4]. The homogenate was centrifuged at 18928 g for 25 min at 4° C., and the supernatant was collected. Protein concentrations of the tissue lysates were determined using BCA protein assay kit (Thermo Fisher, Rockford, IL). C-reactive protein (CRP) concentrations in the muscle tissue lysates were determined using a commercial kit (Rat CRP/C-Reactive Protein ELISA Kit, Sigma, Cat #RAB0097) following the manufacturer's instructions, where the samples were diluted with assay buffer (1:10000) and performed the assay. The amount of CRP present in the tissue lysates was calculated and expressed as nanogram (ng) per milligram of protein. The reduction of CRP concentration in the muscle samples in the treated groups was calculated using the following formula.

As for `CC(=O)O[C@@H]1CC[C@@]2(C)[C@@H](CC[C@]3(C)[C@@H]2C(=O)C=C2[C@@H]4[C@@H](C)[C@H](C)CC[C@]4(C)CC[C@]23C)[C@@]1(C)C(=O)O` [LN03, 3-O-acetyl-11-keto-β-boswellic acid], the “Solubility of 1.0 g of product in water” value in data set [1] is over 1000 mL. The “pH (1% solution)” value in the data set “pH of 1% solution” is on record as 6.63. For the same compound, the “% reduction of LTB4” value worked out at 16.72% in data set [2] (1.0 μg/mL) and 26.83% in data set [2] (2.5 μg/mL). The “% Inhibition of PGE2” value is 15.02% in data set [3] (1.0 μg/mL) and 26.28% in data set [3] (2.5 μg/mL). In the data set on C-reactive protein (CRP), the “Mean CRP conc.” value is listed as 65.44 ng/mg of protein. Further, in the data set on C-reactive protein (CRP), the “% reduction of CRP from normal control” value was determined as 40.60%.
As for `CC(=O)O[C@@H]1CC[C@@]2(C)[C@@H](CC[C@]3(C)[C@@H]2C(=O)C=C2[C@@H]4[C@@H](C)[C@H](C)CC[C@]4(C)CC[C@]23C)[C@@]1(C)C(=O)O` [LN04, 3-O-acetyl-11-keto-β-boswellic acid], the “Solubility of 1.0 g of product in water” value in data set [1] is listed as over 1000 mL. In addition, in “pH of 1% solution”, the “pH (1% solution)” value was 6.64. Moreover, the “% reduction of LTB4” value was found to be 16.03% in data set [2] (1.0 μg/mL) and 28.71% in data set [2] (2.5 μg/mL). Further, the inhibition (in general, the relative decrease from the control value, in per cent) at 1 µg/mL in data set [3] (Homo sapiens, PBMC, 1.0 μg/mL) turned out to be 17.2%. Besides, the inhibition at 2.5 µg/mL in data set [3] (Homo sapiens, PBMC, 2.5 μg/mL) amounted to 20%.
For the compound `[Cl-].[K+]` [LN11, potassium chloride], in the data set on C-reactive protein (CRP), the “Mean CRP conc.” value is reported as 78.21 ng/mg of protein and the “% reduction of CRP from normal control” value came out at 10.23%.
Taken in the same sequence, the figures for `[Cl-].[Na+]` [LN12, sodium chloride] were 78.04 ng/mg of protein and 10.64%.
Turning to “potassium salt or complex or chelate of 3-O-acetyl-11-keto-β-boswellic acid [LN05]”, the “pH (1% solution)” value in the data set “pH of 1% solution” worked out at 9.24. The figures for the “% reduction of LTB4” value in data set [2] (1.0 μg/mL) and in data set [2] (2.5 μg/mL) were 21.95% and 57.57%, respectively. The “% Inhibition of PGE2” value was 24.42% in data set [3] (1.0 μg/mL) and 42.29% in data set [3] (2.5 μg/mL).
With “potassium salt or complex or chelate of 3-O-acetyl-11-keto-β-boswellic acid [LN07]”, the “Solubility of 1.0 g of product in water” value in data set [1] came out at 60 mL. The “pH (1% solution)” value in the data set “pH of 1% solution” is listed as 9.21. For the same compound, the “% reduction of LTB4” value in data set [2] (1.0 μg/mL) amounted to 20.26%; in data set [2] (2.5 μg/mL), 55.85%. The figures for the “% Inhibition of PGE2” value in data set [3] (1.0 μg/mL) and in data set [3] (2.5 μg/mL) were 26.50% and 49.08%, respectively. In addition, the “Mean CRP conc.” value with C-reactive protein (CRP) is recorded as 56.97 ng/mg of protein. In the data set with C-reactive protein (CRP), the “% reduction of CRP from normal control” value was 60.75%.
In the case of “sodium salt of 3-O-acetyl-11-keto-β-boswellic acid [LN06]”, in data set [1], the “Solubility of 1.0 g of product in water” value was 80 mL. Also, the “pH (1% solution)” value in “pH of 1% solution” is recorded as 9.27. Further, the “% reduction of LTB4” value in data set [2] (1.0 μg/mL) is 20.16%; in data set [2] (2.5 μg/mL) it was 47.97% and 47.87%. Further, the “% Inhibition of PGE2” value is on record as 25.64% in data set [3] (1.0 μg/mL) and 41.23% in data set [3] (2.5 μg/mL).
As to “sodium salt of 3-O-acetyl-11-keto-β-boswellic acid [LN08]”, the “pH (1% solution)” value in the data set “pH of 1% solution” came to 8.74. The “% reduction of LTB4” value in data set [2] (1.0 μg/mL) was 21.66%; in data set [2] (2.5 μg/mL), 46.10%. Further, the results for the “% Inhibition of PGE2” value in data set [3] (1.0 μg/mL) and in data set [3] (2.5 μg/mL) were 25.61% and 47.56%, respectively. The “Mean CRP conc.” value with C-reactive protein (CRP) is given as 58.99 ng/mg of protein. Also, the “% reduction of CRP from normal control” value in the data set on C-reactive protein (CRP) stood at 55.94%.
